Results: PMC4102012 (Current chemical biology, 2013)
Several values for one entry are separate records, joined by “and”; a condition that tells them apart may be missing. Identical values can stand only once. Like-named read-outs stand apart in the source and are kept apart here.

Key:
[1] = biological target: T1, HsPBGS oligomeric equilibrium (hexamer/octamer) (Homo sapiens, UniProt P13716, C162A/K59N); settings: for Effect on HsPBGS oligomeric distribution, in words: native PAGE
T1 sequence (P13716 1-330 K59N/C162A): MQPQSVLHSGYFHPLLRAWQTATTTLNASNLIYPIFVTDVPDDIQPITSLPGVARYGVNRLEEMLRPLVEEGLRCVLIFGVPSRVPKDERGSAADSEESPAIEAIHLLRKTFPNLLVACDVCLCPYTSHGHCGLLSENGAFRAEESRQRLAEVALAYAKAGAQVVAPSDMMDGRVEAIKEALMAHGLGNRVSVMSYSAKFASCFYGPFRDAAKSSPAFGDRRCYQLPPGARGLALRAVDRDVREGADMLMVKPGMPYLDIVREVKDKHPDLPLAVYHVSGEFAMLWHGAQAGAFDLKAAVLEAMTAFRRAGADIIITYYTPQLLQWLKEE

[2] = biological target: T2, human porphobilinogen synthase (HsPBGS) (Homo sapiens, UniProt P13716, C162A/K59N); assay: biochemical; assay type: biochemical
T2 sequence (P13716 1-330 K59N/C162A): T1 sequence (P13716 1-330 K59N/C162A)

[3] = biological target: T1, HsPBGS oligomeric equilibrium (hexamer/octamer); assay: Initial native PAGE screen of the NTP library; settings: 2 mM compound, 40 °C 30 min
[4] = system: PBGS from Yersinia enterocolitica; assay: Inhibition of PBGS from Yersinia enterocolitica; assay type: biochemical; settings: data not shown
[5] = biological target: T3, PBGS from Pisum sativum (green pea) (Pisum sativum, UniProt P30124); assay: Inhibition of PBGS from Pisum sativum; assay type: biochemical; settings: data not shown
T3 sequence (P30124 1-398): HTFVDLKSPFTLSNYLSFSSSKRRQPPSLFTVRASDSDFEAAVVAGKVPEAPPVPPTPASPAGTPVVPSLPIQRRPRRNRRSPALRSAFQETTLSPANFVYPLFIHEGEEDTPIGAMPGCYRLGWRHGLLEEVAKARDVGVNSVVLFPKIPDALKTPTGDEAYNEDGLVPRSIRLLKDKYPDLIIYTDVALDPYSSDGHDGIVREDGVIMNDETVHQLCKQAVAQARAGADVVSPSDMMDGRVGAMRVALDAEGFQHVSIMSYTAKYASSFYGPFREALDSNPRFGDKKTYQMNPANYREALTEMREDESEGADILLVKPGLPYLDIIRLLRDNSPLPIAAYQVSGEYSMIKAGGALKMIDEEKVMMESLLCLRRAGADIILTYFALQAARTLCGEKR

[6] = biological target: PBGS from Pseudomonas aeruginosa (Pseudomonas aeruginosa, UniProt Q59643); assay: Inhibition of PBGS from Pseudomonas aeruginosa; assay type: biochemical; settings: data not shown
PBGS from Pseudomonas aeruginosa, sequence (Q59643 whole entry): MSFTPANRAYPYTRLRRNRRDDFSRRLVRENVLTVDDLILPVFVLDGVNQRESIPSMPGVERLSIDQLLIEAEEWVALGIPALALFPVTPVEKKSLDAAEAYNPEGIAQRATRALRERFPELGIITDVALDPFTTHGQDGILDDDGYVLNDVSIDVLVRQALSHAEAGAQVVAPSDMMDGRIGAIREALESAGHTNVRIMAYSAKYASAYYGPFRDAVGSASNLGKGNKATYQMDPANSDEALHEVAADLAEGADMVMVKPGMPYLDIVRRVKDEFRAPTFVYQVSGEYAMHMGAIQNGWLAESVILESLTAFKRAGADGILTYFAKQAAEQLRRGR

HsPBGS = settings: Johns Hopkins Clinical Compounds Library, native PAGE; ref [15]; cited from earlier work
[7] = reagents compatible with the HsPBGS activity assay
[8] = percentage of HsPBGS hexamer at 20 mM compound, 42 °C 1 h, no substrate
[9] = fit of the inhibition curve, 0 = hyperbolic decay to zero
[10] = at 3 mM compound, sum of hexameric and dimeric bands (~2:1) (footnote f)
[11] = preincubation 42 °C 1 h, 10 μg/mL HsPBGS, 10 mM substrate, final pH 7.8
[12] = at 2 mM compound (highest concentration, footnote d)

Row | SMILES | Mole Fraction Hexamer max (obsd) [1, 8] | IC50 [2] | Result of initial screen (increase of mole fraction of hexamer) [3] | FAmin (minimum fractional activity derived from the titration) [2, 9] | IC50 [2, 11] | also measured
1 | O=Cc1ccc(Cl)cc1Cl [2,4-Dichlorobenzaldehyde] | 86.2 ± 0.7% | 107 ± 4 µM | preliminary hits |  |  | Effect on HsPBGS oligomeric distribution, in words [1]: very effective at stabilizing the HsPBGS hexamer; Inhibition of HsPBGS activity, in words [2]: very poor inhibitors of HsPBGS activity
2 | O=Cc1c(Cl)cccc1Cl [2,6-Dichlorobenzaldehyde] |  | 15.2 ± 1.5 µM |  |  |  | Mole Fraction Hexamer max (obsd) [1]: 100% and 100 ± 0%; FAmin (minimum fractional activity derived from the titration) [2]: 0%
3 | O=Cc1ccccc1Cl [2-Chlorobenzaldehyde] | 91.8 ± 0.5% | 44.6 ± 4.9 µM |  | 0% |  | 
4 | O=Cc1ccc(Cl)c(Cl)c1 [3,4-Dichlorobenzaldehyde] | 30.4 ± 2.2% | 26.6 ± 2 µM |  | 0% |  | 
5 | O=Cc1cccc(Br)c1 [3-Bromobenzaldehyde] | 89.9 ± 3.4% | 21.5 ± 3.5 µM | preliminary hits | 80.8 ± 1.2% |  | Effect on HsPBGS oligomeric distribution, in words [1]: very effective at stabilizing the HsPBGS hexamer; Inhibition of HsPBGS activity, in words [2]: very poor inhibitors of HsPBGS activity
6 | CC(=O)[O-].CC(=O)[O-].[Cd+2] [Cadmium acetate] |  |  |  | 16.7 ± 4.0% | 3.6 ± 0.7 µM | Mole Fraction Hexamer max (obsd) [1, 10]: 92.2 ± 0.6 ^f %
7 | [Cl][Cd][Cl] [Cadmium chloride] |  |  |  | 9.2 ± 4.5% | 6.9 ± 1.2 µM | Mole Fraction Hexamer max (obsd) [1, 10]: 94.9 ± 3.3 ^f %
8 | O=C1[C@H]2CC=CC[C@H]2C(=O)N1SC(Cl)(Cl)Cl [Captan, (3aR,7aS)-2-[(trichloromethyl)sulfanyl]-3a,4,7,7a-tetrahydro-1H-isoindole-1,3(2H)-dione] |  | 3 ± 0.3 µM |  | 0% |  | Mole Fraction Hexamer max (obsd) [1, 12]: 72.3 ± 0.3% and 72.3 ± 0.2 ^d %
9 | c1cc(OCC2CO2)cc(OCC2CO2)c1 (stereo not drawn) [Diglycidyl resorcinol ether] | 87.4 ± 2.7% | 36.3 ± 2.4 µM |  | 0% |  | 
10 | COC(=O)c1ccc(C=O)cc1 [Methyl-p-formyl benzoate] | 86.5 ± 1.4% |  |  | 0% | 40.3 ± 0.9 µM | 
11 | O=C1OC(O)C(C(Cl)Cl)=C1Cl (stereo not drawn) [Mutagen X, 3-chloro-4-(dichloromethyl)-5-hydroxy-2(5H-furanone)] |  |  |  | 0% | 1.4 ± 0.1 µM | Inhibition potency relative to HsPBGS, in words [4]: comparable potency; Inhibition potency relative to HsPBGS, in words [5]: comparable potency; Effect on HsPBGS oligomeric distribution, in words [1]: increase the ratio of hexamer to octamer; Inhibition potency relative to HsPBGS, in words [6]: comparable potency
12 | CNc1ccc(O)cc1.CNc1ccc(O)cc1.O=S(=O)(O)O [N-methyl-p-aminophenol sulfate] | 68.1 ± 0.9% |  |  | 0% | 13.7 ± 1.3 µM | 
13 | O=C1CN(/N=C/c2ccc([N+](=O)[O-])o2)C(=O)N1 [Nitrofurantoin, (E)-1-[(5-nitro-2-furyl)methylideneamino]imidazolidine-2,4-dione, reference compound] |  | 5.9 ± 0.4 µM |  |  |  | FAmin (minimum fractional activity derived from the titration) [2]: 0%; Result of previous library screen (HsPBGS): not identified as a hit
14 | NC(=O)NN=Cc1ccc([N+](=O)[O-])o1 [Nitrofurazone, 5-nitro-2-furaldehyde semicarbazone, reference compound] |  |  |  | 0% |  | Mole Fraction Hexamer max (obsd) [1, 12]: 48.5 ± 0.3 ^d %; Mole Fraction Hexamer max (obsd) ([1]; at 2 mM compound (highest concentration, footnote d), listed as nitrofurazone): 48.5 ± 0.3%; Result of previous library screen (HsPBGS): identified as a hexamer-stabilizing HsPBGS inhibitor
15 | CC1=C2[C@H](/C=C(\C)C(=O)O)CC[C@@H](C)[C@H]2CC1 [Valerenic acid, (2E)-3-[(4S,7R,7aR)-3,7-dimethyl-2,4,5,6,7,7a-hexahydro-1H-inden-4-yl]-2-methylacrylic acid] | 64.1 ± 0.9% | 8.2 ± 1.7 µM | preliminary hits | 33.2 ± 3.9% |  | 
16 | [Cd+2].[O-2] [cadmium oxide] |  |  | preliminary hits |  |  | Solubility, in words [7]: insolubility in reagents compatible with the HsPBGS activity assay
17 | N.N.[Cl][Pt][Cl] [cis-Dichlorodiamine platinum, (SP-4-2)-diamminedichloridoplatinum, reference compound] |  |  |  | 0% | 17.1 ± 1.5 µM | Mole Fraction Hexamer max (obsd) ([1]; at 1 mM compound (footnote e), higher concentrations precipitate HsPBGS): 53.0 ± 0.8 ^e %
18 | O=[N+]([O-])c1cccc(CCl)c1 [m-Nitrobenzyl chloride] | 79.8 ± 1.3% |  |  | 0% | 27.1 ± 2.2 µM | 
19 | C=Cc1ccc(C=C)cc1 [p-divinyl benzene] |  |  | preliminary hits |  |  | Solubility, in words [7]: insolubility in reagents compatible with the HsPBGS activity assay
20 | O=C/C=C/c1ccccc1 [trans-cinnamaldehyde] |  |  | preliminary hits |  |  | 
